Starred links: 1 amine or outer side, 2 acyl side, 3 side chain; linkers in the order of their positions; H or OH if unused. Positions of bridges follow the written chain, without caps; N, C: chain ends. Non-standard residues stand in square brackets, D forms with d. Chains are numbered I, II in the order given. X1 = O=C(CCOCCOCCOCCN(CCOCCOCCOCCn1cc(CCC(=O)[*:2])nn1)CCOCCOCCOCCn1cc(CCC(=O)[*:3])nn1)[*:1]; TATA = O=C(CC[*:1])N1CN(C(=O)CC[*:2])CN(C(=O)CC[*:3])C1; d1Nal = N[C@H](Cc1cccc2ccccc12)C(=O)O; Hyp = O=C(O)[C@@H]1C[C@@H](O)CN1; hArg = N=C(N)NCCCC[C@H](N)C(=O)O; tBuAla = CC(C)(C)C[C@H](N)C(=O)O; Nle = CCCC[C@H](N)C(=O)O
Key:
rat Nectin-4 [1] = molecular target: T1, rat Nectin-4 (Rattus norvegicus, UniProt D3ZET1); assay: Multicomponent SPR: Nectin-4 binding to complex captured on biotinylated human CD137, rat Nectin-4
T1 construct: extracellular domain using biotinylated human
Source text: (§1) To understand whether the binding of BCY11863 to Nectin-4 was altered in the context of the ternary complex, i.e. when also bound to CD137, a multicomponent SPR binding assay was developed. BCY11863 was first captured to human CD137 immobilized on the SPR chip surface and then Nectin-4 from different species were passed over the chip to determine their affinities to the captured BCY11863 (see FIG. 21C). The affinities to Nectin-4 were generally maintained in the presence of CD137 binding as shown below: […]
T1 sequence (Q07011 24-186 partner, one chain of several): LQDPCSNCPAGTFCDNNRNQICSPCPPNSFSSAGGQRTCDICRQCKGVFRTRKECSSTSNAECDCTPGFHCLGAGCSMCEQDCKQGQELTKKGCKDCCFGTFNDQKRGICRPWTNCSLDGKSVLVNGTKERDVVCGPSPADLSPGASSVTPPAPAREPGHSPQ

rat Nectin-4 [2] = molecular target: T2, rat Nectin-4 (Rattus norvegicus, UniProt D3ZET1); assay: SPR direct binding to biotinylated Nectin-4 extracellular domain, rat
T2 sequence (D3ZET1 31-509): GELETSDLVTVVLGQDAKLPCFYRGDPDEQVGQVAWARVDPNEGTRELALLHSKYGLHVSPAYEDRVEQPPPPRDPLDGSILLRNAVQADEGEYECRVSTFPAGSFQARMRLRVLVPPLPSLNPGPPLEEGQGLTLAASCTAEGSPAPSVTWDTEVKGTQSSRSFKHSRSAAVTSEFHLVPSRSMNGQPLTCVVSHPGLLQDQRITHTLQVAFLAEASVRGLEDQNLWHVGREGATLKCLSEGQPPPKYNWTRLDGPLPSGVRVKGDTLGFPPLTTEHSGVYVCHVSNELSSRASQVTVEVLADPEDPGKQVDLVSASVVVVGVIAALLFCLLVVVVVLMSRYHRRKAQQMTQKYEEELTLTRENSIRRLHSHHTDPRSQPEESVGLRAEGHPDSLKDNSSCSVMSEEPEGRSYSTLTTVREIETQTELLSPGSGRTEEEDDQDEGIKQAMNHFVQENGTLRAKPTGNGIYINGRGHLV
Source text: The binding of BCY11863 to its primary target Nectin-4 and CD137 was characterized using surface plasmon resonance (SPR).

cyno Nectin-4 = assay: Multicomponent SPR: Nectin-4 binding to complex captured on biotinylated human CD137, cyno Nectin-4; conditions: Sandwich Assay, Nectin-4 ECD, biotinylated human CD137 as capture reagent; read-out: SPR KD NHP
Source text: as §1

[3] = tested on: CT26 #7 tumor tissue T cells; assay: Flow cytometry of T cells in CT26 #7 tumor tissue 1 h after last Q3D dose; type: in vivo, BALB/c-hCD137 mice; conditions: 5 mg/kg ip Q3D, 1 h after 6th dose
Protocol: 1 hour after the last vehicle or BCY11863 dose the […] bearing mice were sacrificed and tumors were harvested, processed for single cell suspensions and stained for flow cytometry analysis for total T cells (CD45+CD3+), CD8+ T cells (CD45+CD3+CD8+), CD4+ T cells (CD45+CD3+CD4+) and regulatory T cells (Tregs; CD45+CD3+CD4+Foxp3+).

[4] = tested on: Nectin-1, Nectin-2, Nectin-3, Nectin-like-1, Nectin-like-2, Nectin-like-3, Nectin-like-4, Nectin-like-5; assay: Nectin-4 paralogue screening by SPR; type: binding; conditions: biotinylated targets on streptavidin surface
Protocol: Nectin-4 Paralogue screening: Binding of BCY11863 was assessed using SPR against Nectin-1 (2880-N1, R&D Systems), Nectin-2 (2229-N2, R&D Systems), Nectin-3 (3064-N3, R&D Systems), Nectin-like-1 (3678-S4-050, R&D Systems), Nectin-like-2 (3519-S4-050, R&D Systems), Nectin-like-3 (4290-S4-050, R&D Systems), Nectin-like-4 (4164-S4, R&D Systems) and Nectin-like-5 (2530-CD-050, R&D Systems) by labelling them with biotin and immobilizing them on a streptavidin surface.

CT26 #7 tumors = assay: Anti-tumor activity in syngeneic Nectin-4 overexpressing CT26 tumor model (CT26 #7); type: in vivo, BALB/c-hCD137 mice; conditions: 5 mg/kg ip Q3D, 6 doses; from day 7 forward
Protocol: 6-8 weeks old BALB/c-hCD137 female mice were inoculated in the flank with 3×10^5 syngeneic Nectin-4 overexpressing CT26 cells (CT26 #7). When tumors reached around 70 mm^3 size on average, mice were randomized to receive vehicle or 5 mg/kg BCY11863 intraperitoneally every three days (6 doses total). Tumor growth was monitored by caliper measurements until day 14 after treatment initiation.

human EphA2 = human EphA2 (Homo sapiens, UniProt P29317); assay: SPR (Biacore) binding to immobilized human EphA2
Sequence of human EphA2 (P29317 24-976): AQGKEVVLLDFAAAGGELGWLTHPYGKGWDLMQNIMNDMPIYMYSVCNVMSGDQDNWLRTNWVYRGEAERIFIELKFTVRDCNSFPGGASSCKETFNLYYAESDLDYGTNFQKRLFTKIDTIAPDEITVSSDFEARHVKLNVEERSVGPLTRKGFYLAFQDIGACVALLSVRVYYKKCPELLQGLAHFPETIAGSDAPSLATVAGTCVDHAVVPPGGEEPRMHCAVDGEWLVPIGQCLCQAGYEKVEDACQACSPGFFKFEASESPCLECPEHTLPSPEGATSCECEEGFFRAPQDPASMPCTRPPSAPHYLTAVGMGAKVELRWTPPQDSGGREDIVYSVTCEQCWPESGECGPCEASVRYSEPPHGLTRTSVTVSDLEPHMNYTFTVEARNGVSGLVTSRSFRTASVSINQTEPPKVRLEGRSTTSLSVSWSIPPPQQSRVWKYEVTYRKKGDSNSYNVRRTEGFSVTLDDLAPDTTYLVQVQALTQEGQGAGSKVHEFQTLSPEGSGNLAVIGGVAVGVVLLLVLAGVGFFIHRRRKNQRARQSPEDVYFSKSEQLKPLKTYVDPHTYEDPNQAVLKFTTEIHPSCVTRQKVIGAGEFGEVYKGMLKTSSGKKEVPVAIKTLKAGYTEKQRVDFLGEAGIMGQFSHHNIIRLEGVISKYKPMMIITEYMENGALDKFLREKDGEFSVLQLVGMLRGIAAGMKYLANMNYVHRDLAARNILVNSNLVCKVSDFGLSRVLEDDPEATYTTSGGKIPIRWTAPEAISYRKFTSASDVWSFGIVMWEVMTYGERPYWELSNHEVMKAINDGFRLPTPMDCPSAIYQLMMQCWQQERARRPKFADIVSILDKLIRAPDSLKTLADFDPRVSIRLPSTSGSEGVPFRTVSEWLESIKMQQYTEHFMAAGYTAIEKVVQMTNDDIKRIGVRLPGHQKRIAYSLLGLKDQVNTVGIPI
Protocol: Biacore experiments were performed to determine ka (M^−1s^−1), kd (s^−1), KD (nM) values of BCY13272 binding to human EphA2 protein.
EphA2 were biotinylated with EZ-Link™ Sulfo-NHS-LC-Biotin for 1 hour in 4 mM sodium acetate, 100 mM NaCl, pH 5.4 with a 3× molar excess of biotin over protein. The degree of labelling was determined using a Fluorescence Biotin Quantification Kit (Thermo) after dialysis of the reaction mixture into PBS. For analysis of peptide binding, a Biacore T200 instrument was used with a XanTec CMD500D chip. Streptavidin was immobilized on the chip using standard amine-coupling chemistry at 25° C. with HBS-N (10 mM HEPES, 0.15 M NaCl, pH 7.4) as the running buffer. Briefly, the carboxymethyl dextran surface was activated with a 7 min injection of a 1:1 ratio of 0.4 M 1-ethyl-3-(3-dimethylaminopropyl) carbodiimide hydrochloride (EDC)/0.1 M N-hydroxy succinimide (NHS) at a flow rate of 10 μl/min. For capture of streptavidin, the protein was diluted to 0.2 mg/ml in 10 mM sodium acetate (pH 4.5) and captured by injecting 120 μl onto the activated chip surface. Residual activated groups were blocked with a 7 min injection of 1 M ethanolamine (pH 8.5):HBS-N (1:1). Buffer was changed to PBS/0.05% Tween 20 and biotinylated EphA2 was captured to a level of 500-1500 RU using a dilution of protein to 0.2 μM in buffer. […]

Compound	Kd (rat Nectin-4 [1]) [µM]	Kd (rat Nectin-4 [2]; KD, biotinylated ECD captured on streptavidin chip) [µM]	Kd (rat Nectin-4 [2]; SPR KD Rat (25° C.), Direct Binding, biotinylated Nectin-4 extracellular domain, 25° C.) [µM]	Kd (cyno Nectin-4) [µM]	CD8+ T cells in tumor ([3]; p<0.0001)	total T cells (CD45+CD3+) in tumor ([3]; p<0.0001)	CD8+ T cell/Treg ratio in tumor ([3]; p<0.05)	binding to Nectin-4 paralogues: concentration up to which no binding was shown [4] [nM]	tumor growth (CT26 #7 tumors)	Kd (human EphA2) [µM]
CCCC[C@@H]1NC(=O)[C@H](Cc2ccc(O)cc2)NC(=O)[C@@H]2CCCN2C(=O)[C@H](CC(=O)O)NC(=O)[C@H](C)NC(=O)[C@H](Cc2ccccc2)NC(=O)[C@@H]2CSCCC(=O)N3CN(CN(C3)C(=O)CCSC[C@@H](C(=O)N[C@@H](C)C(N)=O)NC1=O)C(=O)CCSC[C@H](NC(C)=O)C(=O)N[C@@H](CC(C)(C)C)C(=O)N1CCC[C@H]1C(=O)N[C@@H](CCC(=O)O)C(=O)N[C@H](CCCCNC(=O)CCc1cn(CCOCCOCCOCCN(CCOCCOCCOCCC(=O)N[C@H]3CSCCC(=O)N4CN5CN(C4)C(=O)CCSC[C@H](NC(=O)[C@@H](CC(=O)O)NC(=O)[C@H](Cc4cccc6ccccc46)NC(=O)[C@@H]4CCCN4C3=O)C(=O)N[C@@H](CCSC)C(=O)N[C@@H](CCCCNC(=N)N)C(=O)N[C@@H](CC(=O)O)C(=O)N[C@@H](Cc3c[nH]c4ccccc34)C(=O)N[C@@H](CO)C(=O)N[C@@H]([C@@H](C)O)C(=O)N3CCC[C@H]3C(=O)N3C[C@H](O)C[C@H]3C(=O)N[C@@H](Cc3c[nH]c4ccccc34)C(=O)N[C@H](C(N)=O)CSCCC5=O)CCOCCOCCOCCn3cc(CCC(=O)NCCCC[C@H]4NC(=O)[C@H](CCC(=O)O)NC(=O)[C@@H]5CCCN5C(=O)[C@H](CC(C)(C)C)NC(=O)[C@@H](NC(C)=O)CSCCC(=O)N5CN6CN(C5)C(=O)CCSC[C@H](NC(=O)[C@H](Cc5ccc(O)cc5)NC(=O)[C@@H]5CCCN5C4=O)C(=O)N[C@@H](Cc4ccccc4)C(=O)N[C@@H](C)C(=O)N[C@@H](CC(=O)O)C(=O)N4CCC[C@H]4C(=O)N[C@@H](Cc4ccc(O)cc4)C(=O)N[C@@H](CCCC)C(=O)N[C@H](C(=O)N[C@@H](C)C(N)=O)CSCCC6=O)nn3)nn1)C(=O)N1CCC[C@H]1C(=O)N[C@@H](Cc1ccc(O)cc1)C(=O)N2 [BCY11863]	0.025 ± 0.002	0.005 to 0.027	0.015 ± 0.001	0.028 ± 0.005	significant increase	significant increase	significant increase	> 5000	significantly (p<0.0001, Student's t-test) reduced the tumor growth	
I: A[hArg]DC[Hyp]LVNPLCLEP[d1Nal]WTC-NH2 / II: Ac-C[tBuAla]PE[dK]PYCFADPY[Nle]CA-NH2 / III: Ac-C[tBuAla]PE[dK]PYCFADPY[Nle]CA-NH2 (linker I:4-I:11-I:18, II:1-II:8-II:15, III:1-III:8-III:15 via TATA; linker I:N-II:5-III:5 via X1) [BCY13272]										0.002
